Laboratory results: patent US11274076B2, “Process for preparing 1, 2-benzenedimethanol compound” (GOWAN COMPANY, L.L.C., priority 2016, dated 2022)

test system: Pythium graminicola; experiment: Test 4: control effect against damping-off disease of rice by Pythium (soil irrigation); type: in vivo; conditions: 336 h, 1000 ppm test suspension, 2.5 ml soil irrigation, rice (Koshihikari) in contaminated soil, from degree of disease development

**Q.** With `COc1ccc(OS(C)(=O)=O)c2c1COC(c1csc(C3CCN(C(=O)Cn4nc(Cl)cc4Cl)CC3)n1)OC2` (stereo not shown) [Compound 2-33, 4-[4-(6-methoxy-9-methylsulfonyloxy-1,5-dihydro-3H-2,4-benzodioxepin-3-yl)-2-thiazolyl]-1-[2-(3,5-dichloro-1H-pyrazol-1-yl)acetyl]piperidine] as the compound, how does the pest or weed control at 1000 ppm read?
**A.** ≥ 90%

**Q.** How did the pest or weed control at 1000 ppm turn out when `COc1ccc(OS(C)(=O)=O)c2c1COC(c1csc(C3CCN(C(=O)Cn4nc(C)cc4C)CC3)n1)OC2` (stereo not shown) [Compound 2-34, 4-[4-(6-methoxy-9-methylsulfonyloxy-1,5-dihydro-3H-2,4-benzodioxepin-3-yl)-2-thiazolyl]-1-[2-(3,5-dimethyl-1H-pyrazol-1-yl)acetyl]piperidine] was run?
**A.** ≥ 90%

**Q.** How did the pest or weed control at 1000 ppm turn out when `CS(=O)(=O)Oc1cccc2c1COC(c1csc(C3CCN(C(=O)Cn4nc(C(Cl)Cl)cc4C(Cl)Cl)CC3)n1)OC2` (stereo not shown) [Compound 2-38, 4-[4-(6-methylsulfonyloxy-1,5-dihydro-3H-2,4-benzodioxepin-3-yl)-2-thiazolyl]-1-[2-[3,5-bis(dichloromethyl)-1H-pyrazol-1-yl]acetyl]piperidine] was run?
**A.** ≥ 90%

**Q.** With `CS(=O)(=O)Oc1ccc(Br)c2c1COC(c1csc(C3CCN(C(=O)Cn4nc(C(F)(F)F)cc4C(F)(F)F)CC3)n1)OC2` (stereo not shown) [Compound 2-42, 4-[4-(6-bromo-9-methylsulfonyloxy-1,5-dihydro-3H-2,4-benzodioxepin-3-yl)-2-thiazolyl]-1-[2-[3,5-bis(trifluoromethyl)-1H-pyrazol-1-yl]acetyl]piperidine] as the compound, how does the pest or weed control at 1000 ppm read?
**A.** ≥ 90%

**Q.** `CS(=O)(=O)Oc1ccc(I)c2c1COC(c1csc(C3CCN(C(=O)Cn4nc(C(F)(F)F)cc4C(F)(F)F)CC3)n1)OC2` (stereo not shown) [Compound 2-46, 4-[4-(6-iodo-9-methylsulfonyloxy-1,5-dihydro-3H-2,4-benzodioxepin-3-yl)-2-thiazolyl]-1-[2-[3,5-bis(trifluoromethyl)-1H-pyrazol-1-yl]acetyl]piperidine] was tested. Which pest or weed control at 1000 ppm did it give?
**A.** ≥ 90%

**Q.** `CS(=O)(=O)Oc1c(F)ccc2c1COC(c1csc(C3CCN(C(=O)Cn4nc(C(F)(F)F)cc4C(F)(F)F)CC3)n1)OC2` (stereo not shown) [Compound 2-48, 4-[4-(7-fluoro-6-methylsulfonyloxy-1,5-dihydro-3H-2,4-benzodioxepin-3-yl)-2-thiazolyl]-1-[2-[3,5-bis(trifluoromethyl)-1H-pyrazol-1-yl]acetyl]piperidine] was tested. Which pest or weed control at 1000 ppm did it give?
**A.** ≥ 90%

**Q.** For `CS(=O)(=O)Oc1c(F)ccc2c1COC(c1csc(C3CCN(C(=O)Cn4nc(C(F)F)cc4C(F)F)CC3)n1)OC2` (stereo not shown) [Compound 2-49, 4-[4-(7-fluoro-6-methylsulfonyloxy-1,5-dihydro-3H-2,4-benzodioxepin-3-yl)-2-thiazolyl]-1-[2-[3,5-bis(difluoromethyl)-1H-pyrazol-1-yl]acetyl]piperidine], which pest or weed control at 1000 ppm is on record?
**A.** ≥ 90%

**Q.** Which pest or weed control at 1000 ppm does the source give for `CS(=O)(=O)Oc1ccc(OS(C)(=O)=O)c2c1COC(c1csc(C3CCN(C(=O)Cn4nc(C(F)(F)F)cc4C(F)(F)F)CC3)n1)OC2` [Compound 2-54, 4-[4-[6,9-bis(methylsulfonyloxy)-1,5-dihydro-3H-2,4-benzodioxepin-3-yl]-2-thiazolyl]-1-[2-[3,5-bis(trifluoromethyl)-1H-pyrazol-1-yl]acetyl]piperidine] here?
**A.** ≥ 90%

**Q.** Which pest or weed control at 1000 ppm does the source give for `CCCCS(=O)(=O)Oc1cccc2c1COC(c1csc(C3CCN(C(=O)Cc4cc(C)ccc4C)CC3)n1)OC2` (stereo not shown) [Compound 3-4, 4-[4-(6-butylsulfonyloxy-1,5-dihydro-3H-2,4-benzodioxepin-3-yl)-2-thiazolyl]-1-[2-(2,5-dimethylphenyl)acetyl]piperidine] here?
**A.** ≥ 90%

**Q.** With `CS(=O)(=O)Oc1cccc2c1COC(c1csc(C3CCN(C(=O)Cc4cc(C(F)(F)F)ccc4C(F)(F)F)CC3)n1)OC2` (stereo not shown) [Compound 3-8, 4-[4-(6-methylsulfonyloxy-1,5-dihydro-3H-2,4-benzodioxepin-3-yl)-2-thiazolyl]-1-[2-[2,5-bis(trifluoromethyl)phenyl]acetyl]piperidine] as the compound, how does the pest or weed control at 1000 ppm read?
**A.** ≥ 90%

**Q.** Which pest or weed control at 1000 ppm does the source give for `Cc1ccc(C)c(CC(=O)N2CCC(c3nc(C4OCc5c(OS(C)(=O)=O)cc(C)c(C)c5CO4)cs3)CC2)c1` (stereo not shown) [Compound 3-9, 4-[4-(6,7-dimethyl-9-methylsulfonyloxy-1,5-dihydro-3H-2,4-benzodioxepin-3-yl)-2-thiazolyl]-1-[2-(2,5-dimethylphenyl)acetyl]piperidine] here?
**A.** ≥ 90%

**Q.** How did the pest or weed control at 1000 ppm turn out when `CS(=O)(=O)Oc1c(F)ccc2c1COC(c1csc(C3CCN(C(=O)Cc4cc(Cl)ccc4Cl)CC3)n1)OC2` (stereo not shown) [Compound 3-19, 4-[4-(7-fluoro-6-methylsulfonyloxy-1,5-dihydro-3H-2,4-benzodioxepin-3-yl)-2-thiazolyl]-1-[2-(2,5-dichlorophenyl)acetyl]piperidine] was run?
**A.** ≥ 90%

**Q.** With `CS(=O)(=O)Oc1ccc(I)c2c1COC(c1csc(C3CCN(C(=O)Cc4cc(Cl)ccc4Cl)CC3)n1)OC2` (stereo not shown) [Compound 3-20, 4-[4-(6-iodo-9-methylsulfonyloxy-1,5-dihydro-3H-2,4-benzodioxepin-3-yl)-2-thiazolyl]-1-[2-(2,5-dichlorophenyl)acetyl]piperidine] as the compound, how does the pest or weed control at 1000 ppm read?
**A.** ≥ 90%
